ChEMBL document CHEMBL1130696, “Conformationally constrained analogues of diacylglycerol (DAG). 15. The indispensable role of the sn-1 and sn-2 carbonyls in the binding of DAG-lactones to protein kinase C (PK-C)” (Bioorg Med Chem Lett, 1998)

Biological target: Protein kinase C alpha type (Homo sapiens, UniProt P17252)
Test: Displacement of [20-3H]-phorbol 12,13-dibutyrate (PDBU) from PKCalpha (C1b domain)

With `CCCCCCCCCCCCC/C=C1/COC(CO)(COC(C)=O)C1` (stereo not drawn) as the compound, how does the Ki read?
Its Ki is 7.58 µM.

`CCCCCCCCCCCCC/C=C1\CC(CO)(COCC)OC1=O` (stereo not drawn) was tested. Which Ki did it give?
Its Ki is 4.98 µM.

How did the Ki turn out when `CCCCCCCCCCCCC/C=C1/CC(CO)(COCC)OC1=O` (stereo not drawn) was run?
The Ki was 7.46 µM.
